This is an account of results in patent publication US12097261B2, “CDK2 degraders and uses thereof” (Kymera Therapeutics, Inc., priority 2021, dated 2024).

Bounds are passed on as bounds.

Type in all cases: cell-based
Test [1] addresses T1, CCNE1 (Homo sapiens, UniProt P24864+P24941).
T1 construct: endogenous in cells; host or cells: MKN-1
The test is described as follows: CCNE1 degradation in MKN-1 cells by immunoblotting. The note with it: 24 h, by WB, read-out: Cyclin E1 DC50, (MKN-1 by WB). How it is done:
CCNE1 Degradation in MKN-1 Cells
Gastric cancer cell line MKN-1 were cultured in 6-well plates in complete growth medium. A serial dilution of each compound was added to individual wells from a 2× stock solution, and cells were cultured for 24 hours. Following 24-hr incubation, cells were lysed with addition of chilled RIPA buffer supplemented with protease/phosphatase inhibitors followed by incubation for 20 minutes on ice. Lysates were clarified by centrifugation and 5×SDS loading buffer was added to the supernatant followed by heating to 100° C. for 10 minutes. An aliquot of the samples were separated by SDS-PAGE and transferred to a nitrocellulose membrane. Immunoblotting was performed according to standard procedures using anti-CCNE1 primary antibody (Abcam #ab33911) at 1:1000 dilution and IRDye 800CW goat anti-Rabbit secondary antibody (LICOR) and imaged using a LICOR Odyssey instrument. Blots were stained with anti-beta-Actin primary antibody (Cell Signaling Technology mAb 43700) for normalization. The normalized CCNE1/Actin values were calculated as a percent of DMSO treated cells and plotted to determine the concentration at which 50% of CCNE1 signal is decreased.

The target of test [2] is T2, CDK2 (Homo sapiens, UniProt P24941).
T2 construct: endogenous in cells; host or cells: OVCAR-8
Nature of the test: CDK2 degradation by immunoblotting in OVCAR-8 cells. To be noted: 24 h. As to the method: (§1) CDK2 and CDK1 Degradation by Immunoblotting
(§2) Ovarian cancer cell line OVCAR-8 were cultured in 12-well plates in complete growth medium. A serial dilution of each compound was added to individual wells from a 2× stock solution, and cells were cultured for 24 hours. Cells were collected by centrifugation, and cell pellets lysed with addition of chilled RIPA buffer supplemented with protease/phosphatase inhibitors followed by incubation for 20 minutes on ice. Lysates were clarified by centrifugation and 5×SDS loading buffer was added to the supernatant followed by heating to 100° C. for 10 minutes. An aliquot of the samples were separated by SDS-PAGE and transferred to a nitrocellulose membrane. Immunoblotting was performed according to standard procedures using anti-CDK2 primary antibody (Abcam ab32147) at 1:1000 dilution and IRDye 800CW goat anti-Rabbit secondary antibody (LICOR) and imaged using a LICOR Odyssey instrument. Blots were stained with anti-beta-Actin primary antibody (Cell Signaling Technology mAb #4970) for normalization. The normalized CDK2/Actin values were calculated as a percent of DMSO treated cells and plotted to determine the concentration at which 50% of CDK2 signal is decreased (DC50). The determination of CDK1 degradation was determined similarly using anti-CDK1 primary antibody (Abcam ab131450).
On the technique in general: Immunoblotting shows a protein as a band on a membrane.

Test [3] deals with T3, CDK1 (Homo sapiens, UniProt P06493).
T3 construct: endogenous in cells; host or cells: OVCAR-8
T3 sequence (P06493 whole entry): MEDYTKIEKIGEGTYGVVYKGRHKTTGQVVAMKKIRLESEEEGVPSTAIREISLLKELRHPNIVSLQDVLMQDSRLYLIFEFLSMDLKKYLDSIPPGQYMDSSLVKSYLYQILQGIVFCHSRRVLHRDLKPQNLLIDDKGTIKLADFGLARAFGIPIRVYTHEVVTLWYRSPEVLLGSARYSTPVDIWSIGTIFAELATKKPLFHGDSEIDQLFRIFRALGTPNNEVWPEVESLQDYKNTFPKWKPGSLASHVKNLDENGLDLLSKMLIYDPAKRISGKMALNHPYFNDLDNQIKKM
The test is described as follows: CDK1 degradation by immunoblotting in OVCAR-8 cells. The note with it: 24 h. As to the method: as §1, §2

As a reminder, the DC50 is the midpoint of the concentration-degradation curve. As for `Cc1cc(S(=O)(=O)NCCO[C@H]2CC[C@H](N(C)CC3CCN(c4ccc5c(c4)n(C)c(=O)n5C4CCC(=O)NC4=O)CC3)CC2)ccc1Nc1ncc2ccc(=O)n(C3CCCC3)c2n1` (some centres unmarked) [I-117], the results for the DC50 in test [1], in test [2] and in test [3] were < 10 nM, < 10 nM and 100 to 1000 nM, respectively.

In the case of `Cc1cc(S(=O)(=O)NCCOCCOCCCc2ccc3c(c2)n(C)c(=O)n3C2CCC(=O)NC2=O)ccc1Nc1ncc2ccc(=O)n(C3CCCC3)c2n1` (centres unmarked) [I-146], the figures for the half-maximal degradation concentration (DC50) in test [2] and in test [3] were < 10 nM and 1000 to 5000 nM, respectively.

`Cc1cc(S(=O)(=O)NCCO[C@H]2CC[C@H](CN3CCC(c4ccc5c(c4)n(C)c(=O)n5C4CCC(=O)NC4=O)CC3)CC2)ccc1Nc1ncc2ccc(=O)n(C3CCCC3)c2n1` (some centres unmarked) [I-109]: the DC50 in test [1] is < 10 nM; in test [2], < 10 nM; in test [3], 100 to 1000 nM.

For `Cc1cc(S(=O)(=O)NCCOCCOCCOCCOCCCc2ccc3c(c2)n(C)c(=O)n3C2CCC(=O)NC2=O)ccc1Nc1ncc2c(C)cc(=O)n(C3CCCC3)c2n1` (centres unmarked) [I-138], the DC50 in test [2] and in test [3] was > 5000 nM throughout.

Regarding `Cc1cc(S(=O)(=O)NCCOC2CCC3(CC2)CCN(CCCc2ccc4c(c2)n(C)c(=O)n4C2CCC(=O)NC2=O)CC3)ccc1Nc1ncc2ccc(=O)n(C3CCCC3)c2n1` (centres unmarked) [I-124], the values for the DC50 in test [2] and in test [3] were < 10 nM and 1000 to 5000 nM, respectively.

Take `CC(C)NC(=O)O[C@H]1CC[C@@H](c2cc(NC(=O)c3cc(COCCCCCCCCCc4ccn5c(N6CCC(=O)NC6=O)cnc5c4)nn3C)[nH]n2)C1` [I-145]: the results for the DC50 in test [2] and in test [3] were < 10 nM and 100 to 1000 nM, respectively.

For the compound `CC(C)NC(=O)O[C@@H]1CC[C@H](c2cc(CC(=O)c3cc(COCCCCCCCc4cccc5c4n(C)c(=O)n5C4CCC(=O)NC4=O)nn3C)[nH]n2)C1` (some centres unmarked) [I-101], the results for the 50% degradation concentration (DC50) in test [2] and in test [3] were < 10 nM and 100 to 1000 nM, respectively.

For `Cc1cc(S(=O)(=O)NCCOCCOCCOCCOCC(=O)N[C@H](C(=O)N2C[C@H](O)C[C@H]2C(=O)NCc2ccc(-c3scnc3C)cc2)C(C)(C)C)ccc1Nc1ncc2ccc(=O)n(C3CCCC3)c2n1` [I-139], the DC50 in test [2] and in test [3] was > 5000 nM each time.

`CC(C)NC(=O)O[C@@H]1CC[C@H](c2cc(NC(=O)c3cnn(CCCCCCCCCCCc4cccn5c(N6CCC(=O)NC6=O)cnc45)c3)n[nH]2)C1` [I-64]: the DC50 fell in the range of 10 to 100 nM in test [2] and 1000 to 5000 nM in test [3].

In the case of `CC(C)NC(=O)O[C@@H]1CC[C@H](c2cc(NC(=O)Cc3cnn(CCCCCCCc4ccc5c(c4)n(C)c(=O)n5C4CCC(=O)NC4=O)c3)n[nH]2)C1` (stereo partly drawn) [I-103, (1R,3S)-3-(3-(2-(1-(7-(1-(2,6-dioxopiperidin-3-yl)-3-methyl-2-oxo-2,3-dihydro-1H-benzo[d]imidazol-5-yl)heptyl)-1H-pyrazol-4-yl)acetamido)-1H-pyrazol-5-yl)cyclopentyl isopropylcarbamate], the 50% degradation concentration (DC50) in test [2] is 10 to 100 nM; in test [3], > 5000 nM.

On to `CC(C)NC(=O)O[C@H]1CC[C@@H](c2cc(NC(=O)c3ccnn3CCN3CCN(CCOCCCc4ccc5c(c4)n(C)c(=O)n5C4CCC(=O)NC4=O)CC3)[nH]n2)C1` (some centres unmarked) [I-151], for which the 50% degradation concentration (DC50) in test [2] is 1000 to 5000 nM; in test [3], > 5000 nM.

Take `Cc1cc(S(=O)(=O)NCCOC2CC3(C2)CN(Cc2ccc4c(c2)n(C)c(=O)n4C2CCC(=O)NC2=O)C3)ccc1Nc1ncc2ccc(=O)n(C3CCCC3)c2n1` (centres unmarked) [I-111]: the 50% degradation concentration (DC50) in test [2] lay within 10 to 100 nM; in test [3] it was 1000 to 5000 nM.

`CC(C)NC(=O)O[C@@H]1CC[C@H](c2cc(NC(=O)c3cnn(CCOCCOCCOCCCc4cccc5c4n(C)c(=O)n5C4CCC(=O)NC4=O)c3)n[nH]2)C1` (some centres unmarked) [I-72]: the DC50 in test [2] is 10 to 100 nM; in test [3] it was > 5000 nM.

Consider `Cc1cc(S(=O)(=O)NCCOCCOCCOCCOCCCc2cccc3c2n(C)c(=O)n3C2CCC(=O)NC2=O)ccc1Nc1ncc(Br)c(Nc2cccc(F)c2C(N)=O)n1` (centres unmarked) [I-37, 2-((5-Bromo-2-((4-(N-(15-(1-(2,6-dioxopiperidin-3-yl)-3-methyl-2-oxo-2,3-dihydro-1H-benzo[d]imidazol-4-yl)-3,6,9,12-tetraoxapentadecyl)sulfamoyl)-2-methylphenyl)amino)pyrimidin-4-yl)amino)-6-fluorobenzamide], for which the DC50 in test [2] was in the range of 10 to 100 nM; in test [3], 1000 to 5000 nM.

Consider `Cc1cc(S(=O)(=O)NCCOCCOCCCc2cccc3c2n(C)c(=O)n3C2CCC(=O)NC2=O)ccc1Nc1ncc2cc(C(F)F)c(=O)n([C@@H]3CCC[C@@]3(C)O)c2n1` (some centres unmarked) [I-8], for which the 50% degradation concentration (DC50) is 10 to 100 nM in test [2] and > 5000 nM in test [3].

In the case of `CC(C)NC(=O)O[C@@H]1CC[C@H](c2cc(NC(=O)c3cnn(CCOCCOCCOCCCc4ccc5c(c4)n(C)c(=O)n5C4CCC(=O)NC4=O)c3)n[nH]2)C1` (some centres unmarked) [I-75], the values for the 50% degradation concentration (DC50) in test [2] and in test [3] were 10 to 100 nM and > 5000 nM, respectively.

Consider `Cc1cc(S(=O)(=O)N2CCC(CN(C)C3CCN(c4cccc5c4n(C)c(=O)n5C4CCC(=O)NC4=O)CC3)CC2)ccc1Nc1ncc2ccc(=O)n(C3CCCC3)c2n1` (centres unmarked) [I-114], for which the 50% degradation concentration (DC50) was < 10 nM in test [2] and 1000 to 5000 nM in test [3].

On to `CC(C)NC(=O)O[C@@H]1CC[C@H](c2cc(NC(=O)Cc3cnn(CCCCCCCCCc4ccc5c(c4)n(C)c(=O)n5C4CCC(=O)NC4=O)c3)[nH]n2)C1` (some centres unmarked) [I-102], for which the DC50 was 10 to 100 nM in test [2] and 100 to 1000 nM in test [3].

`C[C@@]1(O)CCC[C@H]1n1c(=O)c(C(F)F)cc2cnc(NC3CCN(S(=O)(=O)CCCCCCCCCCNc4cccc5c4C(=O)N(C4CCC(=O)NC4=O)C5=O)CC3)nc21` (some centres unmarked) [I-15]: the DC50 fell in the range of 10 to 100 nM in test [2] and 100 to 1000 nM in test [3].

For `CC(C)NC(=O)O[C@@H]1CC[C@H](c2cc(NC(=O)c3cc(COCCCCCCCCCc4cccc5c4n(C)c(=O)n5[C@H]4CCC(=O)NC4=O)nn3C)n[nH]2)C1` [I-100], the DC50 was < 10 nM in test [2] and 100 to 1000 nM in test [3].

Regarding `CC(C)NC(=O)O[C@@H]1CC[C@H](c2cc(NC(=O)c3ccnn3CCOCCOCCOCCOCCCc3ccc4c(c3)n(C)c(=O)n4C3CCC(=O)NC3=O)n[nH]2)C1` (some centres unmarked) [I-59], the DC50 in test [2] was 10 to 100 nM; in test [3], > 5000 nM.

In the case of `Cc1cc(S(=O)(=O)NCCOCCOCCCc2ccc3c(c2)n(C)c(=O)n3C2CCC(=O)NC2=O)ccc1Nc1ncc2c(n1)N(C1CCCC1)C(=O)C21CC1` (centres unmarked) [I-150], the half-maximal degradation concentration (DC50) in test [2] and in test [3] was > 5000 nM each time.

With `CC(C)NC(=O)O[C@@H]1CC[C@H](c2cc(NC(=O)c3cnn(CCCCCCCCCC#Cc4cccc5c(N6CCC(=O)NC6=O)cncc45)c3)n[nH]2)C1` [I-67], the DC50 fell in the range of 100 to 1000 nM in test [2] and 1000 to 5000 nM in test [3].

As to `CC(C)NC(=O)O[C@@H]1CC[C@H](c2cc(NC(=O)c3cnn(CCOCCOCCOCCCc4ccn5c(N6CCC(=O)NC6=O)cnc5c4)c3)n[nH]2)C1` [I-74], the half-maximal degradation concentration (DC50) in test [2] was 100 to 1000 nM; in test [3] it was > 5000 nM.

As for `Cc1cc(S(=O)(=O)NCCOC2CC3(C2)CN(CC#Cc2ccc4c(c2)n(C)c(=O)n4C2CCC(=O)NC2=O)C3)ccc1Nc1ncc2ccc(=O)n(C3CCCC3)c2n1` (centres unmarked) [I-126], the DC50 in test [2] was < 10 nM; in test [3], 1000 to 5000 nM.

Take `CC(C)NC(=O)O[C@@H]1CC[C@H](c2cc(NC(=O)Cc3cnn(CCCCCCCCCc4cccc5c4n(C)c(=O)n5C4CCC(=O)NC4=O)c3)[nH]n2)C1` (some centres unmarked) [I-104]: the values for the DC50 in test [2] and in test [3] were 10 to 100 nM and 1000 to 5000 nM, respectively.

For `CN[C@@H](C)C(=O)N[C@H](C(=O)N1CCC[C@H]1c1nc(C(=O)c2cccc(OCCCCCCCCCCCn3cc(C(=O)Nc4cc([C@H]5CC[C@@H](OC(=O)NC(C)C)C5)n[nH]4)cn3)c2)cs1)C1CCCCC1` [I-148, (1R,3S)-3-(5-(1-(11-(3-(2-((S)-1-((S)-2-cyclohexyl-2-((S)-2-(methylamino)propanamido)acetyl)pyrrolidin-2-yl)thiazole-4-carbonyl)phenoxy)undecyl)-1H-pyrazole-4-carboxamido)-1H-pyrazol-3-yl)cyclopentyl isopropylcarbamate], the 50% degradation concentration (DC50) in test [2] and in test [3] was 1000 to 5000 nM each time.

With `CC(C)NC(=O)O[C@@H]1CC[C@H](c2cc(NC(=O)c3cnn(CCCCCCCCCCCc4ccn5c(N6CCC(=O)NC6=O)cnc5c4)c3)[nH]n2)C1` [I-142], the half-maximal degradation concentration (DC50) in test [2] was 10 to 100 nM; in test [3], > 5000 nM.

Take `CC(C)NC(=O)O[C@@H]1CC[C@H](c2cc(NC(=O)c3cnn(CCCCCCCCCCCc4ccc5c(c4)n(C)c(=O)n5C4CCC(=O)NC4=O)c3)[nH]n2)C1` (some centres unmarked) [I-96]: the half-maximal degradation concentration (DC50) in test [2] was 10 to 100 nM; in test [3], > 5000 nM.

For the compound `CC(C)NC(=O)O[C@@H]1CC[C@H](c2cc(NC(=O)c3cnn(CCCCCCCCCCCc4cccc5c4n(C)c(=O)n5C4CCC(=O)NC4=O)c3)[nH]n2)C1` (some centres unmarked) [I-97], the values for the half-maximal degradation concentration (DC50) in test [2] and in test [3] were 10 to 100 nM and 1000 to 5000 nM, respectively.
